Measured values from patent publication US5206220A (Research Corporation Technologies, Inc., priority 1991, dated 1993).
Converted amounts (≈) assume the structure as drawn. “And” between values parts separate entries of the source, which are not always exact repeats. Equal entries are not always repeated. Where two headings read alike, the source gives them in different places. Peptide text beside a SMILES is read from it.

How the values were obtained:
cells = conditions: cited from earlier work
[1] = storage in aqueous solution, diketopiperazine formation; cited from earlier work
[2] = rats, after 24 h, cited from earlier work
[3] = cited from earlier work
[4] = cited from earlier work; remark: listed apart in the source
[5] = rats, 0.5 mmol/kg; same value at longer times; cited from earlier work
[6] = administered for TPN; cited from earlier work
[7] = cited from earlier work; remark: listed apart in the source
[8] = γ-GluGln stability in Aminosyn-PF 10%; format: physicochemical; conditions: sterile, room temperature, one month, 4.5 and 9 months
Method: (§1) Sci. 18:233-236] or accomplished by standard amino acid analysis techniques.
To determine the stability of γ-GluGln under typical storage conditions, γ-GluGln was added to Aminosyn-PF 10% under sterile conditions and left at room temperature.

[9] = Clearance of γ-GluGln from plasma, release of plasma glutamine; format: in vivo, mice; conditions: for Glutamine Concentration (plasma), individual mice / Glutamine Concentration (plasma), Mean + Standard Error: 29 μmoles γ-GluGln i.v.; for Glutamine Concentration (plasma), Mean + Standard Error: N = 6
Method: as §1
Mice were injected with 29 μmoles of γ-GluGln via the external jugular vein. Control animals were injected with an equal volume of saline. Blood was sampled at 10 min. and at 60 min after injection.

[10] = target: T1, bovine kidney γ-GTase (Sigma Type II) (Bos taurus, UniProt G3N2D8); test: In vitro release of tyrosine from γ-GluTyr by γ-glutamyl transpeptidase; format: biochemical; conditions: γ-GluTyr in Aminosyn-PF 10%, pH 7.4, monitored by HPLC
T1 construct: the solution treated with bovine kidney γ-GTase (Sigma Type II) at pH 7.4; purchased Sigma Type II; host or cells: bovine kidney (tissue-derived)
T1 sequence (G3N2D8 1-379 limits assumed): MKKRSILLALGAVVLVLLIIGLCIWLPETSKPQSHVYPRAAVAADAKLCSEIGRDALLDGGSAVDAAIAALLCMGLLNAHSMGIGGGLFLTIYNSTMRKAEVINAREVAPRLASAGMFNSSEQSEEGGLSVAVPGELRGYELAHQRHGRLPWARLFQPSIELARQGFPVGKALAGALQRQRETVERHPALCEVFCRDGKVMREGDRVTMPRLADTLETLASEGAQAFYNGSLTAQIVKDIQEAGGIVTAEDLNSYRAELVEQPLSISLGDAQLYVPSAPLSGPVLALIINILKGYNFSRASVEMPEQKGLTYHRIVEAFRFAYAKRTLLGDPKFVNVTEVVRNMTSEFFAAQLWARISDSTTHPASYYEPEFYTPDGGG
T1 sequence (G3N2D8 380-568 limits assumed): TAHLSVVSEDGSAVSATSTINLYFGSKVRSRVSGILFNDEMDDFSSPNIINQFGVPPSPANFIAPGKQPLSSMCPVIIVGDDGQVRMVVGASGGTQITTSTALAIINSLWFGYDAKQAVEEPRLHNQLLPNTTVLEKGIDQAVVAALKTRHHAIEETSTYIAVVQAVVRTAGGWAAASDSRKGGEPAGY
Method: The most likely route for metabolic degradation of γ-GluTyr involves the enzyme, γ-glutamyl transpeptidase (γ-GTase), a widely distributed enzyme in mammalian tissues. In an in vitro test of this hypothesis, γ-GluTyr was added to Aminosyn-PF 10% and the solution treated with bovine kidney γ-GTase (Sigma Type II) at pH 7.4.

[11] = Distribution of γ-GluTyr in urine and plasma; format: in vivo, mice
Method: Urine was collected from mice injected with γ-GluTyr to determine whether or not the peptide was excreted into the urine. Mice were anesthetized with pentobarbital and then injected with 20 μl 140 mM γ-GluTyr (2.8 μmol). No urine was voided during the 60-min experiment, during which time the mice remained anesthetized. At the end of the experiment, the urinary bladders were tied off, removed and blood was collected from the heart for analysis. At the end of 60 min, a maximum of 0.13% of the injected γ-GluTyr was excreted in the urine whereas the plasma contained 12-25 μM γ-GluTyr. If these mice are assumed to have a total plasma volume of 4 ml, then only about 4% of the injected γ-GluTyr remained in the plasma at 60 min post-injection.

[12] = Clearance of γ-GluTyr from plasma after i.v. injection; format: in vivo, mice
Method: Injections of 20 μl of 140 mM γ-GluTyr (2.8 μmol) were made in the external jugular vein of 30-40 g mice. The amount of γ-GluTyr was measured in the plasma at 10 min and 60 min post-injection in each animal.

γ-GTase = target: T2, γ-GTase (Mus musculus, UniProt Q60928); test: Effects of inhibiting γ-GTase with acivicin in mice injected with γ-GluTyr; format: in vivo; conditions: for Tyr (plasma) / Phe (plasma) / γ-GluTyr (plasma): 2.8 μmol γ-GluTyr i.v., 10 min postinjection; for γ-GluTyr excreted: lost in the urine at 60 min postinjection
T2 construct: from tissue; host or cells: live mice (whole animal; kidney named as a site of high activity)
T2 sequence (Q60928 1-379 limits assumed): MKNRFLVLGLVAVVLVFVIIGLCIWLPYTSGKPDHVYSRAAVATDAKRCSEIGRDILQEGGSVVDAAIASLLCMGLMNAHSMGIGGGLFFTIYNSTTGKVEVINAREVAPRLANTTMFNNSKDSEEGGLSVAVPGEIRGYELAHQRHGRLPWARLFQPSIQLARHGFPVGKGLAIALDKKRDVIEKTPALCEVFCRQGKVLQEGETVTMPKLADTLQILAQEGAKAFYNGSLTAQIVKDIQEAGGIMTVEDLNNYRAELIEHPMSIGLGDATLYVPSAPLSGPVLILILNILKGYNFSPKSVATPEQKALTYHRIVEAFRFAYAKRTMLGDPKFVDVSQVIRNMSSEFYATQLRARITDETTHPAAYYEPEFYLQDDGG
T2 sequence (Q60928 380-568 limits assumed): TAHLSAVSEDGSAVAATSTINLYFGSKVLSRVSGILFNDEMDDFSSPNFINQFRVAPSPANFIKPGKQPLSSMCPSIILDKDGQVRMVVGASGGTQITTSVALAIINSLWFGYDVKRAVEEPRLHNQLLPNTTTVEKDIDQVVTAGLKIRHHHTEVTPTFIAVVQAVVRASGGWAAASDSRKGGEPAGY
Method: To test the role of γ-GTase in degradation of γ-GluTyr in vivo an additional experiment was conducted. […] Control mice received saline rather than acivicin prior to intravenous injection of 2.8 μmol of γ-GluTyr. In test mice, an intraperitoneal injection of acivicin was made 90 min prior to the injection of 2.8 μmol γ-GluTyr. Plasma was sampled after 10 min and 60 min, and urine was collected after 60 min.
The kidney is generally unable to prevent the loss of intact peptides in the urine. Instead, peptides are hydrolyzed to free amino acids, which can then be salvaged by absorption into the bloodstream. […] When γ-GTase is inhibited by acivicin, unhydrolyzed peptide should be lost in the urine. The data in Table 5 are consistent with a role for γ-GTase in the hydrolysis of γ-GluTyr to prevent its excretion in the urine. When this enzyme is inhibited by acivicin, the amount of unhydrolyzed peptide which appears in the urine in 60 min increases markedly over peptide found in the urine of control mice.

[13] = Stability of γ-GluTyr in a TPN amino acid solution; format: physicochemical; conditions: equal volumes 1.8 mM γ-GluTyr and Aminosyn-PF 10%, pH 5.5, ultrafiltered, room temperature, nine-month period, HPLC
Method: B. In a TPN amino acid solution: Equal volumes of 1.8 mM γ-GluTyr and Aminosyn-PF 10% (Abbott Laboratories) were mixed and the pH was adjusted to 5.5. The mixture thus contained similar concentrations of the peptide and of several amino acids, including phenylalanine and histidine. A sample was taken for analysis, and the remainder of the solution was sterilized by ultrafiltration and stored at room temperature (typical storage conditions for TPN amino acid solutions). Samples for analysis were also taken at intervals over a nine-month period. All samples were analyzed by HPLC as described above.

[14] = mice, 20 μL 140 mM γ-GluTyr, 10 min postinjection

SMILES: N[C@@H](CCC(=O)N[C@@H](CSSC[C@H](NC(=O)CC[C@H](N)C(=O)O)C(=O)O)C(=O)O)C(=O)O [(γ-GluCys)2, N,N'-bis(γ-glutamyl)cystine]
- transport into cells (cells): are transported

SMILES: C[C@H](N)C(=O)N[C@@H](CCC(N)=O)C(=O)O [AlaGln, alanylglutamine] (H-Ala-Gln-OH)
- stability in aqueous solution [1]: unstable during prolonged storage in aqueous solution

SMILES: C[C@H](N)C(=O)N[C@@H](Cc1ccc(O)cc1)C(=O)O [AlaTyr, L-alanyl-L-tyrosine] (H-Ala-Tyr-OH)
- plasma tyrosine levels ([2]; 0.5 mmol/kg/day): unchanged
- plasma tyrosine levels ([2]; 2 mmol/kg/day): increased two-fold
- stability in aqueous solution [1]: unstable in aqueous solution

SMILES: Cl.N[C@@H](CS)C(=O)O [Cysteine-HCl, Cysteine-hydrochloride]
- plasma ratio of cysteine to methionine (Cys/Met) ([3]; infants on TPN supplemented with L-cysteine-HCL): 0.6
- adverse effect in TPN ([3]; some treated low-birth-weight infants): implicated in the production of acidosis

SMILES: N[C@@H](CSSC[C@H](N)C(=O)O)C(=O)O [Cystine]
- solubility in water [4]: 1 mg/dL (≈ 41.6 µM)

SMILES: N[C@@H](CCC(=O)N[C@@H](CS)C(=O)NCC(=O)O)C(=O)O [GSH, gamma-glutamyl-cysteinylglycine, reference compound]
- transport into cells (cells): does not appear to be transported into cells

SMILES: NCC(=O)N[C@@H](CCC(N)=O)C(=O)O [GlyGln, glycylglutamine] (H-Gly-Gln-OH)
- stability in aqueous solution [1]: unstable during prolonged storage in aqueous solution

SMILES: NCC(=O)N[C@@H](Cc1ccc(O)cc1)C(=O)O [GlyTyr, L-glycyl-L-tyrosine] (H-Gly-Tyr-OH)
- rise of plasma tyrosine levels compared with AlaTyr [5]: did not increase as rapidly
- stability in aqueous solution [1]: unstable during storage in aqueous solution

SMILES: CC(=O)N[C@@H](CSSC[C@H](NC(C)=O)C(=O)O)C(=O)O [N,N'-bis-acetylcystine]
- urinary losses [6]: large urinary losses

SMILES: CC(=O)N[C@@H](CS)C(=O)O [NAcCys, N-acetylcysteine]
- NAcCys levels (plasma) ([7]; four hours after administration (from 2)): 488 µmol/L
- plasma levels of cysteine ([7]; four hours after administration of 5 g cysteine in a 200 mg/ml solution as NAcCys (basal 207)): 134 µmol/L
- administered NAcCys excreted in the urine ([7]; within 4 h): 11%

SMILES: NC(CCC(=O)NC(CSSCC(N)C(=O)O)C(=O)O)C(=O)O [γ-Glu(Cys)2, γ-L-glutamyl-L-cystine]
- transport into cells (cells): are transported

SMILES: NC(=O)CC[C@H](NC(=O)CC[C@H](N)C(=O)O)C(=O)O [γ-GluGln, gamma-L-glutamyl-L-glutamine]
- stability of γ-GluGln under typical storage conditions [8]: remained stable
- Glutamine Concentration (plasma), individual mice ([9]; 10 min): 675 µM and 762 µM and 614 µM and 693 µM and 681 µM and 770 µM
- Glutamine Concentration (plasma), Mean + Standard Error ([9]; 10 min): 699 ± 24 µM
- Glutamine Concentration (plasma), individual mice ([9]; 60 min): 565 µM and 586 µM and 457 µM and 198 µM and 555 µM and 629 µM
- Glutamine Concentration (plasma), Mean + Standard Error ([9]; 60 min): 498 ± 64 µM
- mice with γ-GluGln detected in the plasma ([9]; 29 μmoles γ-GluGln via external jugular vein, 10 min): three of six
- appearance of γ-GluGln in the urine ([9]; mice not pretreated with acivicin): did not appear in the urine

SMILES: N[C@@H](CCC(=O)N[C@@H](Cc1ccc(O)cc1)C(=O)O)C(=O)O [γ-GluTyr, gamma-L-glutamyl-L-tyrosine]
- release of tyrosine from γ-GluTyr by the enzyme [10]: released tyrosine
- peptide hydrolyzed and available as free tyrosine and glutamic acid ([11]; 60 min post-injection): at least 96%
- injected γ-GluTyr remaining in the plasma ([11]; 60 min post-injection, assumed total plasma volume of 4 ml): about 4%
- plasma γ-GluTyr ([11]; anesthetized mice, 2.8 μmol i.v., 60 min): 12 to 25 µM
- injected γ-GluTyr excreted in the urine ([11]; anesthetized mice, 2.8 μmol i.v., at the end of 60 min): ≤ 0.13%
- partitioning into red blood cells ([11]; previous studies): not partitioned into red blood cells
- clearance of γ-GluTyr from plasma ([12]; mice 30-40 g, 20 μl of 140 mM (2.8 μmol) external jugular vein, 10 min to 60 min post-injection): 2.2 to 2.6 µM/min
- Plasma Phe [12, 14]: 89 ± 8 µM
- Plasma Tyr [12, 14]: 126 ± 14 µM
- increase of plasma concentration of tyrosine ([12]; mice, 40 μl of 140 mM γ-GluTyr, between 5 and 10 min post-injection): 32%
- fall of plasma concentration of tyrosine ([12]; mice, 40 μl of 140 mM γ-GluTyr, between 10 and 60 min post-injection): 32%
- clearance rate of γ-GluTyr from plasma ([12]; mice, 40 μl of 140 mM, external jugular vein): 6.8 µM/min
- Tyr (plasma) (γ-GTase; acivicin + (2 mg/30 g mouse i.p. 90 min before)): 96 ± 1 µM
- Phe (plasma) (γ-GTase; acivicin +): 96 ± 6 µM
- γ-GluTyr (plasma) (γ-GTase; acivicin +): 247 ± 17 µM
- γ-GluTyr excreted (γ-GTase; acivicin +): 16-48 % of total
- Tyr (plasma) (γ-GTase; acivicin - (saline)): 126 ± 14 µM
- Phe (plasma) (γ-GTase; acivicin -): 89 ± 8 µM
- γ-GluTyr (plasma) (γ-GTase; acivicin -): 112 ± 15 µM
- γ-GluTyr excreted (γ-GTase; acivicin -): 0.05-0.19 % of total
- levels of γ-GluTyr and tyrosine during storage [13]: unchanged
